Results reported in US7425532B2, “Use of alanyl aminopeptidase inhibitors and pharmaceutical compositions containing said inhibitors” (IMTM GmbH, priority 2002, dated 2008).

Legend:
[1] = system: human regulatory T-lymphocytes (CD4+CD25+); test: Gene expression of TGF-β1 (TGF-β1-mRNA) in human regulatory T-lymphocytes, quantitative RT-PCR; type: cell-based; conditions: PHA/PMA plus inhibitor
Procedure: Induction of the Gene Expression of TGF-β1 in Human Regulatory T-Lymphocytes (CD4^+CD25^+) After an Incubation with the Inhibitor Phebestin
(§1) The T-cells were incubated for 24 h without adding (control), with adding PHA and PMA or with simultaneously adding PHA/PMA and phebestin. PHA (phythemagglutinine) and PMA (phorbol myristate acetate) were used as mito-gens and agents stimulating the proliferation. Subsequently, the content of TGF-β1-mRNA was determined by quantitative RT-PCR and using the i-cycler.
Induction of the Gene Expression of TGF-β1 in Human Regulatory T-Lymphocytes (CD4^+CD25^+) after an incubation with the inhibitor PAQ-22
as §1, with “PMA and” for “PMA or”, “and PAQ-22.” for “and phebestin.”
Induction of the Gene Expression of TGF-β1 in Human Regulatory T-Lymphocytes (CD4^+CD25^+) After an Incubation with the Aminopeptidase Inhibitor RB3014
as §1, with “for 72” for “for 24”, “PMA and” for “PMA or”, “and RB3014.” for “and phebestin.”

[2] = system: human regulatory T-lymphocytes (CD4+CD25+); test: Surface expression of TGF-β1 on human regulatory T-lymphocytes, flow cytometry with anti-TGF-β1 antibody; type: cell-based; conditions: 24 h incubation, PHA/PMA plus inhibitor; results only in FIG. 1
Procedure: Induction of the Surface Expression of TGF-β1 on Human Regulatory T-Lymphocytes (CD4^+CD25^+) After Incubation with the Inhibitor Phebestin
The T-cells were incubated for 24 h without adding (control), with adding PHA and PMA and with simultaneously adding PHA/PMA and phebestin. PHA (phythemagglutinine) and PMA (phorbol myristate acetate) were used as mito-gens and agents stimulating the proliferation. Subsequently, the surface expression of TGF-β1 was measured by flow cytometry using a commercially available polyclonal anti-TGF-β1 antibody (chicken anti-human; R & D Systems).

[3] = 24 h incubation, results only in FIG. 2, FIG. 3

SMILES: CC(N)P(=O)(O)CC(Cc1ccccc1)C(=O)NC(Cc1ccccc1)C(=O)O (stereo not shown) [RB3014]
- gene expression of TGF-β1 (content of TGF-β1-mRNA) ([1]; 72 h incubation, results only in FIG. 4): Induction

SMILES: CC(C)[C@H](NC(=O)[C@@H](O)[C@H](N)Cc1ccccc1)C(=O)N[C@@H](Cc1ccccc1)C(=O)O [Phebestin, phebestin]
- surface expression of TGF-β1 [2]: Induction
- gene expression of TGF-β1 (content of TGF-β1-mRNA) [1, 3]: Induction

SMILES: CCc1cccc(CC)c1-n1c(=O)[nH]c2ccccc2c1=O [PAQ-22]
- gene expression of TGF-β1 (content of TGF-β1-mRNA) [1, 3]: Induction
